Key:
[1] = test system: aerobes isolated from the oral cavity; assay: Susceptibility (MIC), agar dilution, aerobes from the oral cavity; type: cell-based, aerobic bacteria; details: for activity against aerobes: explored range 0.2 to 3.5 mg/ml
Method: (§1) The investigations included more than hundred strains isolated from the oral cavity: : anaerobes, microaerophilic bacteria, aerobes, Streptococcus spp. and yeast like fungi. The microorganisms were isolated from saliva, mucosal membrane, gingival pockets and caries decay. The susceptibility (MIC) of bacteria and yeastlike fungi were determined by means of plate dilution technique in agar.
(§2) The investigated samples were dissolved in sterile distilled water (immediately before the experiment) to obtain the following concentrations: 3.5, 1.7, 0.8, 0.4 and 0.2 mg/ml and were added into appropriate agar. The plates were inoculated using a Steers multipoint inoculator. Inoculum contained 10^6 CFU/spot. In each experimental series, the growth of strains on the culture medium without the compounds investigated was checked. The concentration at which no macroscopic growth of the microbes was observed on the medium was regarded as the lowest concentration, inhibiting the growth of microbes (MIC). The examinations of the susceptibility of microbes to the peptides were carried out twice.
Anaerobes. The susceptibility of bacteria was determined by means of the agar dilution methods with Brucella agar supplemented with 5% defibrinated sheep's blood, menadione and hemin. Sample solutions with concentrations from of 3.5-0.2 mg/ml were added into agar. The agar plate without investigated samples was included as a bacterial growth control. The inoculum of 10^6 CFU/ml was applied to the agar plates with Steers replicator. Incubation was performed for 48 hrs at 37° C. (310° K) in anaerobic jars containing a mixture of 10% CO2, 10% H2 and 80% N2, in the presence of palladium catalyst and indicator of anaerobiosis. Microaerophilic bacteria. The susceptibility of bacteria was determined by means of the agar dilution methods with Brucella agar supplemented with 5% sheep's blood. Samples solutions with concentrations from of 3.5- 0.2 mg/ml were added into agar. The agar plate without investigated samples was included as a bacterial growth control. The inoculum of 10^6 CFU/ml was applied to the agar plates with Steers replicator. The incubation was performed at 37° C. in anaerobic jars with Campy Pak (bio Merieux) for 48 hours. Streptococcus spp. The susceptibility of bacteria was determined by means of the agar dilution methods with Mueller-Hinton agar supplemented with 5% sheep's blood. Samples solutions with concentrations from of 3.5- 0.2 mg/ml were added into agar. The agar plate without investigated samples was included as a bacterial growth control. […] The susceptibility to investigated samples was determined by means of the plate dilution technique in Mueller-Hinton agar. […] The susceptibility of fungi to investigated samples was determined by means of the plate dilution technique in Sabouraud's agar. […]

[2] = test system: anaerobes isolated from the oral cavity; assay: Susceptibility (MIC), agar dilution, anaerobes from the oral cavity; type: cell-based, anaerobic bacteria; details: for activity against anaerobes: explored range 0.2 to 3.5 mg/ml
Method: as §1, §2
Anaerobes. The susceptibility of bacteria was determined by means of the agar dilution methods with Brucella agar supplemented with 5% defibrinated sheep's blood, menadione and hemin. Sample solutions with concentrations from of 3.5-0.2 mg/ml were added into agar. The agar plate without investigated samples was included as a bacterial growth control. The inoculum of 10^6 CFU/ml was applied to the agar plates with Steers replicator. Incubation was performed for 48 hrs at 37° C. (310° K) in anaerobic jars containing a mixture of 10% CO2, 10% H2 and 80% N2, in the presence of palladium catalyst and indicator of anaerobiosis. Microaerophilic bacteria. The susceptibility of bacteria was determined by means of the agar dilution methods with Brucella agar supplemented with 5% sheep's blood. Samples solutions with concentrations from of 3.5- 0.2 mg/ml were added into agar. The agar plate without investigated samples was included as a bacterial growth control. The inoculum of 10^6 CFU/ml was applied to the agar plates with Steers replicator. The incubation was performed at 37° C. in anaerobic jars with Campy Pak (bio Merieux) for 48 hours. Streptococcus spp. The susceptibility of bacteria was determined by means of the agar dilution methods with Mueller-Hinton agar supplemented with 5% sheep's blood. Samples solutions with concentrations from of 3.5- 0.2 mg/ml were added into agar. The agar plate without investigated samples was included as a bacterial growth control. The inoculum of 10^6 CFU/ml was applied to the agar plates with Steers replicator. Incubation was performed for 24 hrs at 37° C. (310° K) in anaerobic jars containing a mixture of 10% CO2 and 90% N2. Aerobes. The susceptibility to investigated samples was determined by means of the plate dilution technique in Mueller-Hinton agar. Samples solutions with concentrations from of 3.5- 0.2 mg/ml were added into agar. The agar plate without investigated samples was included as a bacterial growth control. The inoculum of 10^6 CFU/ml was applied to the agar plates with Steers replicator. Plates were incubated for 24 hrs in 37° C. under aerobic conditions. Yeast like fungi. The susceptibility of fungi to investigated samples was determined by means of the plate dilution technique in Sabouraud's agar. Samples solutions with concentrations from of 3.5- 0.2 mg/ml were added into agar. […]

[3] = In-vivo: tooth samples treated with peptide, 12 hours in the oral cavity, then acetic acid, Knoop hardness; set-up: species or system human; details: for B: Average initial hardness of the tooth surface (st. dev.): before treatment
Method: In another experiment, 126 sterilized tooth samples where treated with a variety of peptides, fixed to the device and positioned after the lower jaw in the oral cavity of 5 volunteers. The device remained in the oral cavity for a period of 12 hours after which the teeth where removed, cleaned and subjected to a drop of acetic acid (0.1N, 30 min., 37° C). Subsequently the acid was removed, the teeth where cleaned and the hardness was measured (Knoop method). The depth of penetration increased 8.82 μm, 5.40 μm, 5.32 μm and 3.77 μm respectively for teeth treated as blanco with 4.2% casein phosphopeptide e-polylysine copolymer, 7.5% phosvitin and with 4.2% bisphosphonylated e-polylysine. The p-values are respectively 0.000, 0.000 and 0.004 for casein phosphopeptide e-polylysine copolymer, bisphosphonylated e-polylysine and phosvitin.
Tooth samples have been cut in horizontal slices (thickness: 0.3 to 1 mm) with a Leitz 1600 tooth cutter with horizontal cutting blade; the slices are cut manually (with a bore) into small tooth samples that contain a small part of the original tooth surface. The tooth sample is positioned in a small plastic tube, that has been cut from a long plastic tube with 6 mm external diameter. The length of the tube is 3 to 6 mm. The inner part of the tube is filled with a polymer that hardens under light (Photoclearfil Bright; Kuraray). The tooth sample is positioned in the soft polymer inside the tube, in such a way that the original tooth surface is just surfacing above the tube. Finally the polymer is hardened with a light source. The tooth surface is polished with Struers silicon carbid paper (800-4000) and the hardness is measured 5 times on each of the samples under the Letiz Wetzlar microscope (weight on needle: 50 p). Tooth samples with a maximum average depth of penetration of 43 μm are retained for use in the oral cavity.
The tooth-samples are fixed to a device that has been described in the chapter “Description of the invention ( chapter: In-vivo experiments)” and the device is positioned in the oral cavity after the lower jaw.
A drop from a solution containing either, e-polylysine, CPP, bisphoshphonylated e-polylysine, casein phosphopeptide epsilon-polylysine copolymer or partially hydrolysed phosvitin has been positioned at the surface of tooth samples for a period of 30 minutes at 37 C.; the drop was removed and the procedure was repeated once more. All solutions contained also 3.1% CaCl2.2H2O and 1.7% KH2PO4 (except for the one containing e-polylysine).
The tooth surface was cleaned with a soft paper towel until it was visibly clean. Four such tooth samples where fixed to the device and located in the oral cavity behind the lower jaw. They resided in the oral cavity for a period of 12 hours (only to be removed during eating). Subsequently, they where removed, cleaned and the tooth surface was treated with a drop of acetic acid (0.1N, 30 min., 37° C.); the acid was removed, the tooth was washed with deionized water and the hardness was evaluated.
A: type of peptide ingredient in the solution (% on a w/w basis versus water). (*): the teeth where submerged (30 min.) in a saliva batch and dried afterwards on air, before they where treated with a solution that contained bisphosphonylated e-polylysine. B: Average initial hardness of the tooth surface; μm (st. dev.) C: Average hardness after treatment, after residing in the oral cavity and treatment with acid D: The average change in hardness (C−B) E: p-value (against blanco) of the Mann-Whitney statistical test F: the number of tooth samples that where treated with a specific formulation; hardness on each of the tooth samples was measured five times and an average value was calculated; most often 4 tooth samples per person; 5 volunteers participated to the experiment; the 132 tooth samples where randomized into groups (of 4 teeth) with the same average hardness value.

[4] = 4.2% w/w solution, 12 hours oral cavity, acetic acid 0.1N 30 min

Row | Substance | aerobes harvested from the oral cavity that are inhibited ([1]; at 0.2 to 0.4 mg/ml, 2 from 17) | anaerobes harvested from the oral cavity that are inhibited ([2]; at 0.2 to 0.4 mg/ml, 17 from 24 species) | mic-value (minimum inhibitory concentration) ([2]; gram-negative anaerobes, often, incl. Prevotella nigrescens, Porphyromonas gingivalis, Fusobacterium nucleatum) | C: Average hardness after treatment, after residing in the oral cavity and treatment with acid [3, 4] | D: average change in hardness (C−B) [3, 4] | B: Average initial hardness of the tooth surface (st. dev.) ([3]; group for 4.2% solution) | activity against aerobes [1] | activity against anaerobes [2] | D: average change in hardness (C−B) ([3]; 4.2% solution (*): teeth submerged 30 min in saliva before treatment) | C: Average hardness after treatment, after residing in the oral cavity and treatment with acid ([3]; 4.2% solution (*): teeth submerged 30 min in saliva before treatment, 12 hours oral cavity, acid) | B: Average initial hardness of the tooth surface (st. dev.) ([3]; group for 4.2% solution (*)) | D: average change in hardness (C−B) ([3]; 7.8% w/w solution) | C: Average hardness after treatment, after residing in the oral cavity and treatment with acid ([3]; 7.8% w/w solution, 12 hours oral cavity, acid) | B: Average initial hardness of the tooth surface (st. dev.) ([3]; group for 7.8% solution)
1 | Epsilon-polylysine (elys; e-polylysine) [Product 6] | 12% | 71% | ≤ 200 µg/mL | 47.81 (3.67) μm | 6.93 μm | 40.88 (0.91) μm |  |  |  |  |  |  |  | 
2 | bisphosphonylated epsilon-polylysine [bisphosphonylated e-polylysine] |  |  |  | 44.29 (2.08) μm | 3.77 μm | 40.52 (0.62) μm | not active | good activity | 3.29 μm | 44.05 (2.92) μm | 40.76 (0.73) μm |  |  | 
3 | casein phosphopeptide epsilon-polylysine copolymer [(CPP x elys)n] |  |  |  | 46.21 (1.94) μm | 5.40 μm | 40.81 (0.68) μm | not active | less effective |  |  |  | 2.41 μm | 42.92 (1.43) μm | 40.51 (1.55) μm

Source: patent publication US20080226565A1, “Anticariogenic Proteins & Peptides & Saccharides” (priority 2004, published 2008)
